Laboratory results reported in patent publication US10464929B2, “Organic molecules for terahertz tagging applications” (Council of Scientific & Industrial Research, priority 2014, dated 2019).

Experiment: Solubility of the THz molecular tags in various solvents
Format: physicochemical

SMILES	Solubility in THF (solvent THF (tetrahydrofuran))	Solubility in Diethyl Ether (solvent Diethyl Ether)	Solubility in Toluene (solvent Toluene)
O=C(NCCNC(=O)Nc1ccccc1)Nc1ccccc1 [PhU—C2—UPh, 1,1′-(ethane-1,2-diyl)bis(3-phenylurea)]	Turbid		
O=C(Nc1ccccc1)Nc1cccc(NC(=O)c2ccccc2)n1 [PhU—Ph—AP, N-(6-(3-phenylureido)pyridin-2-yl)benzamide]		Turbid	Turbid
